# According to patent US7659251B2, “Ligand for G-protein coupled receptor FPRL2” (priority 2004, dated 2010):
# How the values were obtained:
# FPRL2 [1] = target: T1, FPRL2 (Homo sapiens, UniProt P25089); assay: Aequorin-based assay on CHO-K1 cells expressing FPRL2, apoaequorin and Galpha16; assay type: cell-based; set-up: expressed in transfected cells; host or cells: CHO-K1 (with or without Galpha16 and apoaequorin); details: for concentrations required to activate FPRL2 (calcium): FPRL2-expressing CHO-K1 cells
# T1 sequence (P25089 1-353): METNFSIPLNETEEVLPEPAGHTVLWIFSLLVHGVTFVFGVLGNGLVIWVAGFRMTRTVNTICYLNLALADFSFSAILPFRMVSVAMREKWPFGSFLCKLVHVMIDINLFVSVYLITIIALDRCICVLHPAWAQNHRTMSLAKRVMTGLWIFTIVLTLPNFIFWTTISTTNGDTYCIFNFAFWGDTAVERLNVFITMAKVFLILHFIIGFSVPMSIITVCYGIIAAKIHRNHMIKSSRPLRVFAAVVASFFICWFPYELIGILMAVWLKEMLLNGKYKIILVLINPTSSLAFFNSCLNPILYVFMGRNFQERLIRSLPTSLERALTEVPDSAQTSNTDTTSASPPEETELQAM
# Description: Briefly, FPRL2 polypeptide-expressing clones are transfected to coexpress mitochondrial apoaequorin and Gα16. Cells are incubated with 5 μM Coelenterazine H (Molecular Probes) for 4 hours at room temperature, washed in DMEM-F12 culture medium and resuspended at a concentration of 0.5×10^6 cells/ml. Cells are then mixed with test agonist molecules and light emission by the aequorin is recorded with a luminometer for 30 sec. Results are expressed as Relative Light Units (RLU). Controls include assays using membranes isolated from cells not expressing FPRL2 polypeptide (mock transfected), in order to exclude possible non-specific effects of the candidate compound.
# FPRL2 expressing clones have been obtained by transfection of CHO-K1 cells to coexpressing mitochondrial apoaequorin and Galpha16, limiting dilution and selection by northern blotting. Positive clones were used for screening with porcine spleen extracts prepared as described above. […] Briefly, cells were collected from plates in PBS containing 5 mM EDTA, pelleted and resuspended at 5×10^6 cells/ml in DMEM-F12 medium. Cells were incubated with 5 μM Coelenterazine H (Molecular Probes) for 4 hours at room temperature. Cells were then washed in DMEM-F12 medium and resuspended at a concentration of 0.5×10^6 cells/ml. Cells were then mixed with test agonist peptides or plates containing tissue extracts and the light emission was recorded for 30 sec using a Microlumat luminometer (Perlin Elmer). Results are expressed as Relative Light Units (RLU).
# (§1) The human coding sequences (accession numbers AC005946, M84562 and M60626, respectively) were amplified by PCR from human genomic DNA, cloned into the pcDNA3 (Invitrogen) and pEFIN3 (Euroscreen) vectors and sequenced. The pEFIN3 constructs were transfected, using Fugene 6, into CHO-K1 cells, expressing or not Gα16 and apoaequorin. G418-resistant clones were characterized for receptor expression by Northern blotting. […] Results were expressed as relative light units (RLU) or as the percentage of the response to 20 μM ATP.
# The cAMP concentrations were determined using a homogeneous time-resolved fluorescence (HTRF) kit (Cis Bio International). Briefly, cells were detached, resuspended in Krebs Ringer Hepes buffer containing 1 mM 3-Isobutyl-1-methylxanthine, and submitted to 10 μM forskolin, alone or together with increasing concentrations of agonists for 30 min at room temperature. The reaction was stopped by the successive addition of cAMP-XL665 and anti-cAMP cryptate diluted in lysis buffer. The plates were incubated for 60 min at room temperature and read on a Rubystar fluorimeter (BMG). […] A calibration curve was obtained by plotting delta F % versus cAMP concentrations. […] The aequorin-based assay was performed with or without overnight pretreatment with 100 ng/ml Pertussis toxin. […] For FPRL2 polymorphism analysis, HEK cells were transiently transfected with empty and wild-type or Asp338H is FPRL2-containing pcdna vector using calcium phosphate method. Cells were recovered 48 hours later and used for FACS or cAMP experiments.
# FPRL2 [2] = target: T1, FPRL2; assay: Saturation and competition binding on FPRL2-expressing CHO-K1 cells, tracer F2L-[125I]Tyr; set-up: expressed in transfected cells; host or cells: CHO-K1; details: for competition for FPRL2 binding: up to concentrations of 3 μM, data not shown
# Description: FPRL2, FPRL1 and FPR-expressing CHO-K1 cells were plated in 24 wells plates (200,000 cells per well for FPRL2, and 100,000 cells per well for the two other receptors). The next day, the cells were washed twice with a KRH buffer containing 280 mM saccharose and, for FPRL1 and FPR, 0.1 % NaN3. […] Cells were washed twice with ice cold buffer, total radioactivity was recovered with 1 M […] and counted in a gamma counter for […]
# FPRL1 [3] = target: T2, FPRL1 (Homo sapiens, UniProt P25090); assay: Aequorin-based assay on CHO-K1 cells expressing FPRL1; assay type: cell-based; details: FPRL1 expressed in CHO-K1 cells
# T2 construct: expressed in transfected cells; host or cells: CHO-K1 (with or without Galpha16 and apoaequorin)
# T2 sequence (P25090 1-351): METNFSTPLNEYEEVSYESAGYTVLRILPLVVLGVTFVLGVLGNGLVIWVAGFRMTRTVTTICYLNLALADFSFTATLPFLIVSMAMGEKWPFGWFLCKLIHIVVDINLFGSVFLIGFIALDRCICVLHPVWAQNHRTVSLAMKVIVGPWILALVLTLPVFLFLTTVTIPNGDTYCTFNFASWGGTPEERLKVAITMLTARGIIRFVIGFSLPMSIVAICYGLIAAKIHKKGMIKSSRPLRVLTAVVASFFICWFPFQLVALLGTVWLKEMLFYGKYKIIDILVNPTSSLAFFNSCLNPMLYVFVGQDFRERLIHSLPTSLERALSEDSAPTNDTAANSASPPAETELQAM
# From the text: as §1
# FPR = target: T3, FPR (Homo sapiens, UniProt P21462, E346A/V101L); assay: Aequorin-based assay on CHO-K1 cells expressing FPR; assay type: cell-based; details: FPR expressed in CHO-K1 cells
# T3 construct: expressed in transfected cells; host or cells: CHO-K1 (with or without Galpha16 and apoaequorin)
# T3 sequence (P21462 1-350 V101L/E346A): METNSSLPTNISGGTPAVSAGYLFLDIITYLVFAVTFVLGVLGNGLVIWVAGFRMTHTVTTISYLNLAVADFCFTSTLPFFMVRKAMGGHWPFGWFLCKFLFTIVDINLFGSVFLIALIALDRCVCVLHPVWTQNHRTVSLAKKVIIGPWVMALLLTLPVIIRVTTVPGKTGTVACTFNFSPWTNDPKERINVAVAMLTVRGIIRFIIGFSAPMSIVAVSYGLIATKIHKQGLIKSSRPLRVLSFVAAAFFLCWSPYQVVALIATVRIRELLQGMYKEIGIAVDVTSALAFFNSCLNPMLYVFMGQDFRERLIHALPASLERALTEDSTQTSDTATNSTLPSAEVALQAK
# From the text: as §1
# FPRL1 [4] = target: T2, FPRL1; assay: Aequorine assay on human FPRL1 expressing cells (Example 9); assay type: cell-based; details: data not shown
# Description: (§2) Functional responses were analyzed by recording the luminescence of aequorine in human FPRL2 and FPRL1 expressing cells following the addition of agonists or purified monoclonal antibodies.
# (§3) In brief, cells were collected from plates with PBS containing 5 mM EDTA, pelleted, resuspend at 5×10^6 cells/ml in DMEM/F-12 medium containing 0.1% bovine serum albumin, incubated with 5 μM coelenterazine H (molecular probes, Inc. Eugene, Oreg.) for 4 h at room temperature and diluted in DMEM/F-12 medium at a concentration of 5×10^5 cells/ml. Cells where then mixed in an 96 wells plate with the ligands or purified monoclonal antibodies. The light emission was recorded over 60 sec using a microlumat Luminometer (EG&G Berthold, microplate luminometer LB 96V).
# (§4) Each data point is in duplicate. […] Human FPRL1 expressing cells were used as negative control to Mab. Functionality of these cells has been control with Humanin.
# FPRL2 [5] = target: T1, FPRL2; assay: Aequorine assay on human FPRL2 expressing cells (Example 9); assay type: cell-based; set-up: expressed in transfected cells; host or cells: CHO-K1 (with or without Galpha16 and apoaequorin); details: peptides 2.5 μM to 0.4 nM, Mab 500 ug/ml to 5 ug/ml; FIG. 15
# Description: as §2, §3, §4
Compound,concentrations active on FPRL1 (FPRL1 [3]),concentrations active on FPR (FPR),competition for FPRL2 binding (FPRL2 [2]),concentrations required to activate FPRL2 (calcium) (FPRL2 [1]),also measured
Pertussis toxin,–,–,–,–,"effect of pretreatment on F2L calcium signaling (FPRL2 [1]; 100 ng/ml overnight pretreatment, FIG. 11G): totally inhibited"
"NSLFGSVETWPWQVL [F2L[7-21], truncated F2L variant lacking the first six aminoacids]",–,–,–,–,activity in binding assay (FPRL2 [2]; not shown): totally inactive; activity in aequorin assay (FPRL2 [1]; FIG. 11H): totally inactive
CSCC[C@H](NC(=O)[C@@H](NC(=O)[C@H](CCSC)NC(=O)[C@H](Cc1ccc(O)cc1)NC(=O)[C@H](CCCCN)NC(=O)[C@@H](N)Cc1c[nH]c2ccccc12)C(C)C)C(N)=O [WKYMVM],low nanomolar concentrations,low nanomolar concentrations,did not compete,micromolar concentrations,–
CSCC[C@H](NC(=O)[C@H](Cc1ccc(O)cc1)NC(=O)[C@H](CCCCN)NC(=O)[C@@H](N)Cc1c[nH]c2ccccc12)C(=O)N[C@H](C(=O)N[C@H](CCSC)C(N)=O)C(C)C [WKYMVm],low nanomolar concentrations,low nanomolar concentrations,did not compete,micromolar concentrations,–
"Humanin: Humanin (HN(N)) peptide (Phoenix Pharmaceuticals), disclosed as a ligand for FPRL2 and FPRL1 [reference compound]",–,–,–,–,activation of human FPRL1 expressing cells (FPRL1 [4]): activates; activation of human FPRL2 expressing cells (FPRL2 [5]): activates
"CSCC[C@H](NC=O)C(=O)N[C@@H](CC(C)C)C(=O)N[C@@H](Cc1ccccc1)C(=O)O [FMLP, formyl-methionine-leucyl-phenylalanine]",–,–,did not compete,–,activity on FPRL2 (FPRL2 [1]; FPRL2-expressing cells): inactive
